Laboratory results as given in patent US12662497B2, “Benzazepine compounds, preparation method therefor and pharmaceutical use thereof” (Shanghai Senhui Medicine Co., Ltd., priority 2021, dated 2026).

How the values were obtained:
[1] = biological target: T1, Arginine vasopressin receptor 2 (AVPR2) (Homo sapiens, UniProt P30518); assay: Arginine vasopressin receptor 2 (AVPR2) receptor cAMP assay in Flpin-CHO-AVPR2 cells; assay type: cell-based, humans; conditions: arginine vasopressin stimulation
T1 construct: host or cells: Flpin-CHO (CHO cells)
T1 sequence (P30518 whole entry): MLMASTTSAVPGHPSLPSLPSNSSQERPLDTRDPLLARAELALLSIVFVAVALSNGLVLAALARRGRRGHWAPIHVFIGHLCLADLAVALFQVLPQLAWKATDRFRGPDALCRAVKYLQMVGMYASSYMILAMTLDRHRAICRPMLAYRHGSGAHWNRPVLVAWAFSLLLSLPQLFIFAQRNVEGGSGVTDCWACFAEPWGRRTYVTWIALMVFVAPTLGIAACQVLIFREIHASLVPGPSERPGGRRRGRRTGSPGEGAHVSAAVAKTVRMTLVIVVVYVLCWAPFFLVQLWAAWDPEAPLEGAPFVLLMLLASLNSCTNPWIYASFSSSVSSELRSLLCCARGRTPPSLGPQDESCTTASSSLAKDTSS
Experimental: The test compound was 5-fold diluted with assay buffer (Hank's balanced salt solution+20 mM HEPES+0.1% BSA+500 μM IBMX (manufacturer: Sigma)). The highest initial concentration of the test compound in the assay was 10 μM.
Flpin-CHO-AVPR2 (the cell strain was constructed by Pharmaron Beijing Co., Ltd.; AVPR2 was derived from humans)
• 1) Cells were digested, resuspended in assay buffer and inoculated into a 384-well cell culture plate at a density of 8000 cells per well and a volume of 15 μL per well. • 2) The compound was diluted with assay buffer. • 3) 2.5 μL of the compound was added to each well, and the plate was incubated at 37° C. for 10 min. • 4) Arginine vasopressin (manufacturer: MedChemExpress) was diluted with assay buffer to a concentration of 16 μM. • 5) 2.5 μL of the 16 μM solution of arginine vasopressin was added, and the plate was incubated at 37° C. for 30 min. • 6) Eu-cAMP tracer and Ulight-anti-cAMP were thawed and diluted with lysis buffer (Eu-cAMP tracer, Ulight-anti-cAMP and lysis buffer were all taken from the cAMP assay kit (manufacturer: Perkin Elmer)). • 7) 10 μL of Eu-cAMP tracer was added to the experimental wells, and then 10 μL of Ulight-anti-cAMP was added to the experimental wells. • 8) The reaction plate was centrifuged at room temperature at 200 g for 30 s and left at 25° C. for 1 h, and data collection was performed using a microplate reader.

[2] = Pharmacokinetic study in dogs (Test Example 1), intragastric administration; assay type: in vivo; conditions: beagles; for AUC(0-inf) / AUC(0-t) / Cmax / Tmax / half-life: beagle, dog, plasma, mean value
Experimental: (§1) 1.1.1. Experimental Animals: Beagles, Non-Naïve, Sourced from the Animal Repository of Medicilon: 999M-004.
A proper amount of tolvaptan and compound 5 was accurately weighed out and well mixed with a proper volume of 1% hydroxypropyl methylcellulose by vortexing or ultrasonication to give a 0.5 mg/mL solution of tolvaptan and a 2.15 mg/mL solution of compound 5 for intragastric administration.
(§2) Tolvaptan and compound 5 were intragastrically administrated. Blood was collected before the administration and 10 min, 30 min, 1 h, 2 h, 4 h, 6 h, 8 h and 24 h after the administration. EDTA-K2 was used as the anticoagulant, and the esterase inhibitor DDVP (manufacturer: Sigma) was added. Plasma samples were separated and cryopreserved at −70° C., and the compound 5 and tolvaptan levels were determined by LC-MS/MS.

[3] = system: beagles; assay: Blood sodium level (serum Na+, ion-selective electrode) in beagles (Test Example 5); assay type: in vivo; conditions: compound 5 administered intragastrically 2.7 mg/kg, FIG. 1
Experimental: (§3) A proper amount of compound 1b disodium salt and compound 5 was accurately weighed out and well mixed with a proper volume of normal saline by vortexing or ultrasonication to give a 0.5 mg/mL clear solution of compound 1b disodium salt, a 0.25 mg/mL clear solution of compound 5 and a 1.35 mg/mL clear solution of compound 5 for intravenous drip administration.
(§4) A proper amount of tolvaptan and compound 5 was accurately weighed out and well mixed with a proper volume of 1% hydroxypropyl methylcellulose by vortexing or ultrasonication to give a 5 mg/mL solution of tolvaptan and a 1.35 mg/mL solution of compound 5 for intragastric administration.
The compounds of the intravenous administration group were administered via an intravenous drip over 1 h. The compounds of the intragastric administration group were intragastrically administered. […] Plasma samples were separated and cryopreserved at −70° C., and the levels of related compounds in vivo were determined by LC-MS/MS. About 0.5 mL of blood was collected via the jugular vein or in other suitable ways, placed into separator gel blood collection tubes (without an anticoagulant) and centrifuged at room temperature at 3500 rpm for 10 min to separate the serum, and the concentration of Na^+ in the serum was determined by using the ion-selective electrode method.

[4] = Pharmacokinetic study in rats (Test Example 4), intragastric administration; assay type: in vivo; conditions: Sprague-Dawley, rat, plasma, SD rats, mean value
Experimental: 1.1.1. Experimental Animals: SD Rats, Male and Female, Weighing about 180-220 g. Housing Environment: SPF. The Animals were Transferred from the Animal Repository (999M-017) of the Laboratory Animal Management Department, Shanghai Institute of Planned Parenthood Research. 1.1.2. Administration Regimen:
as §2, with “0.5 h,” for “30 min,”, “DDVP” for “DDVP (manufacturer: Sigma)”

[5] = Pharmacokinetic study in beagles (Test Example 5), intravenous drip and intragastric administration; assay type: in vivo; conditions: for AUC(0-t) / Cmax / Tmax / half-life: beagle, dog, plasma
Experimental: as §1, §3, §4
The compounds of the intravenous administration group were administered via an intravenous drip over 1 h. The compounds of the intragastric administration group were intragastrically administered. Time points of blood collection were: before the administration and 30 min, 1 h, 1.5 h, 2 h, 4 h, 6 h, 12 h and 24 h after the administration. About 1 mL of blood was collected via the jugular vein or in other suitable ways. EDTA-K2 was used as the anticoagulant, and the esterase inhibitor DDVP was added. Plasma samples were separated and cryopreserved at −70° C., and the levels of related compounds in vivo were determined by LC-MS/MS. About 0.5 mL of blood was collected via the jugular vein or in other suitable ways, placed into separator gel blood collection tubes (without an anticoagulant) and centrifuged at room temperature at 3500 rpm for 10 min to separate the serum, and the concentration of Na^+ in the serum was determined by using the ion-selective electrode method.

[6] = Pharmacokinetic study in rats (Test Example 3), intravenous injection; assay type: in vivo; conditions: SD rats
From the text: 1.1.1. Experimental Animals: SD Rats, Male and Female, Weighing about 220 g. Housing Environment: SPF. The Animals were Transferred from the Animal Repository (999M-017) of the Laboratory Animal Management Department, Shanghai Institute of Planned Parenthood Research. 1.1.2. Administration Regimen:
A proper amount of the compound was accurately weighed out and well mixed with a proper volume of 10% DMSO+35% PEG400+55% normal saline by vortexing or ultrasonication to give a clear solution for intravenous injection.
Blood was collected at various time points after intravenous injection (before the administration and 0.0833, 0.25, 0.5, 1, 2, 4, 8 and 24 h after the administration). EDTA-K2 was used as the anticoagulant, and the esterase inhibitor DDVP was added. Plasma samples were separated and cryopreserved at −70° C., and the compound and tolvaptan levels were determined by LC-MS/MS.

[7] = Compound 5 administered PO 4.3 mg/kg, molecule detected Compound 5
[8] = intragastric, tolvaptan converted in vivo from compound 5 vs tolvaptan administered
[9] = female, Compound 5 PO 12.9 mg/kg, molecule detected Compound 5
[10] = male, Compound 5 PO 12.9 mg/kg, molecule detected Compound 5
[11] = iv, Compound 5 0.5 mg/kg i.v. drip over 1 h, molecule detected Compound 5, mean value
[12] = iv, Compound 5 2.7 mg/kg i.v. drip over 1 h, molecule detected Compound 5, mean value
[13] = po, Compound 5 2.7 mg/kg p.o., molecule detected Compound 5, mean value
[14] = both sexes, Sprague-Dawley, rat, plasma, iv, Compound M i.v. 3.91 mg/kg, molecule detected Compound M, mean value
[15] = Tolvaptan administered PO 1 mg/kg, molecule detected Tolvaptan
[16] = female, Tolvaptan PO 9 mg/kg, molecule detected Tolvaptan
[17] = male, Tolvaptan PO 9 mg/kg, molecule detected Tolvaptan
[18] = po, Tolvaptan 10 mg/kg p.o., molecule detected Tolvaptan, mean value

`Cc1ccccc1C(=O)Nc1ccc(C(=O)N2CCCC(OCOP(=O)(O)OCC[N+](C)(C)C)c3cc(Cl)ccc32)c(C)c1` (stereo not drawn) [Compound 5, ((7-Chloro-1-(2-methyl-4-(2-methylbenzamido)benzoyl)-2,3,4,5-tetrahydro-1H-benzo[b]azepin-5-yl)oxy)methyl (2-(trimethylammonio)ethyl) phosphate] showed an IC50 [1] of 8 nM, an AUC(0-inf) [2, 7] of 162 ng·h/mL and an AUC(0-t) [2, 7] of 156 ng·h/mL. The Cmax [2, 7] was 88.7 ng/mL, the Tmax [2, 7] was 0.389 h and the half-life [2, 7] was 1.43 h. For the same compound, the “exposure compared with tolvaptan” value [2, 8] was “higher exposure”, the “half-life compared with tolvaptan” value [2, 8] was “longer half-life” and the “elevating the blood sodium level” value [3] was “has the effect of elevating the blood sodium level”. The AUC(0-t) [4, 9] was 58.4 ng·h/mL, the Cmax [4, 9] was 50.1 ng/mL and the Tmax [4, 9] was 0.167 h. The half-life [4, 9] was 1.67 h, the AUC(0-t) [4, 10] was 46.1 ng·h/mL and the Cmax [4, 10] was 44.4 ng/mL. For the same compound, the Tmax [4, 10] was 0.167 h, the half-life [4, 10] was 1.55 h and the AUC(0-t) [5, 11] was 1200 ng·h/mL. The Cmax [5, 11] was 889 ng/mL, the Tmax [5, 11] was 1 h and the half-life [5, 11] was 0.704 h. The AUC(0-t) [5, 12] was 7850 ng·h/mL, the Cmax [5, 12] was 5700 ng/mL and the Tmax [5, 12] was 1 h. It also gave a half-life [5, 12] of 0.647 h, an AUC(0-t) [5, 13] of 122 ng·h/mL and a Cmax [5, 13] of 61.5 ng/mL. For the same compound, the Tmax [5, 13] was 0.5 h, the half-life [5, 13] was 1 h and the “AUC0-t of tolvaptan converted from compound 5 compared with tolvaptan administered intragastrically” value ([5]; intragastric, compound 5 at a relatively low molar dose (2.7 mg/kg vs tolvaptan 10 mg/kg)) was “higher AUC0-t”.
With `Cc1ccccc1C(=O)Nc1ccc(C(=O)N2CCCC(OC(=O)[C@@H](N)C(C)C)c3cc(Cl)ccc32)c(C)c1` (stereo partly drawn) [Compound M] the AUC(0-inf) [6, 14] was 824 ng·h/mL, the AUC(0-t) [6, 14] was 786 ng·h/mL and the Cmax [6, 14] was 719 ng/mL. For the same compound, the Tmax [6, 14] was 8.34 min, the clearance [6, 14] was 90.8 mL/min/kg and the half-life [6, 14] was 1.17 h. For the same compound, the Vd ([6]; both sexes, Sprague-Dawley, rat, plasma, iv, Compound M i.v. 3.91 mg/kg, molecule detected Compound M, mean value, read-out: Vss) was 6.47 L/kg.
With `Cc1ccccc1C(=O)Nc1ccc(C(=O)N2CCCC(OC(=O)OCOC(=O)C(N)C(C)C)c3cc(Cl)ccc32)c(C)c1.Cl` (stereo not drawn) [Hydrochloride of Compound 16] the “plasma level of administered molecule” value ([6]; Hydrochloride of Compound 16 i.v. 4.41 mg/kg, molecule detected Hydrochloride of Compound 16) was “Undetectable”.
Compound `Cc1ccccc1C(=O)Nc1ccc(C(=O)N2CCCC(O)c3cc(Cl)ccc32)c(C)c1` (stereo not drawn) [Tolvaptan, reference compound] has an AUC(0-inf) [2, 15] of 26.3 ng·h/mL, an AUC(0-t) [2, 15] of 21.6 ng·h/mL and a Cmax [2, 15] of 7.08 ng/mL. It also gave a Tmax [2, 15] of 1.5 h, a half-life [2, 15] of 1.94 h and an AUC(0-t) [4, 16] of 1820 ng·h/mL. The Cmax [4, 16] was 412 ng/mL, the Tmax [4, 16] was 2 h and the half-life [4, 16] was 2.64 h. The AUC(0-t) [4, 17] was 55.5 ng·h/mL, the Cmax [4, 17] was 20.3 ng/mL and the Tmax [4, 17] was 1.67 h. For the same compound, the AUC(0-t) [5, 18] was 10.2 ng·h/mL, the Cmax [5, 18] was 3.83 ng/mL and the Tmax [5, 18] was 1.17 h. It also gave a half-life [5, 18] of 2.61 h.
